Source: patent publication US20130225427A1, “METHOD FOR PREDICTION OF RESPONSE TO IMMUNE MEDIATED DISEASE THERAPEUTICS” (SANFORD-BURNHAM MEDICAL RESEARCH INSTITUTE, priority 2010, published 2013)

Tests used:
Assay type in all cases: in vivo, human
APC = experiment: Taqman gene expression in APC from PBMC of treated RA clinical responders; settings: compared to initiation of the treatment
Text: (§1) The aim of this study is to identify clusters of immune pathways characteristic of responsiveness that are specific to treatment. […] We show as summary a color coded table. We clustered individual immune functions according to cut off values identified in preliminary studies (25% change compared with baseline at active disease). The Table 1 depicts the differences for patients who are all responders and therefore otherwise clinically indistinguishable ([…]).
(§2) PBMCs from each patient were incubated for 48 hours with plate bound anti-CD3/CD28. Non-adherent cells were collected to enrich T cells by pan T-cell MACS. T cells were FACS sorted on CD4+CD127+ (TE) and CD4+CD25+CD127− (nTreg), and CD4+CD25+PD1+CD127− (PD1+ Treg). Aliquots of all sorted cells were collected for TaqMan. The remainder of the APCs and TE were cultured with isolated Treg. CFSE was added to the TE cells and cultured for a total of 4 days with anti-CD3/CD28.

Te Cells = experiment: Taqman gene expression in sorted CD4+CD127+ effector T cells (TE) of treated RA clinical responders; settings: compared to initiation of the treatment
Text: as §1, §2

nTreg = experiment: Taqman gene expression in sorted CD4+CD25+CD127− nTreg of treated RA clinical responders; settings: compared to initiation of the treatment
Text: as §1, §2

PD1 + Treg = experiment: Taqman gene expression in sorted CD4+CD25+PD1+CD127− PD1+ Treg of treated RA clinical responders; settings: compared to initiation of the treatment
Protocol: The aim of this study is to identify clusters of immune pathways characteristic of responsiveness that are specific to treatment. […] We clustered individual immune functions according to cut off values identified in preliminary studies (25% change compared with baseline at active disease).
as §2

Treg = experiment: Suppression activity of Treg on CFSE-labelled TE proliferation; settings: when clinical response is seen (FIG. 3)
Protocol: as §2

CN(Cc1cnc2nc(N)nc(N)c2n1)c1ccc(C(=O)N[C@@H](CCC(=O)O)C(=O)O)cc1 [MTX, methotrexate]
B7-H1 up or down regulated (APC): up regulated (cut off values identified in preliminary studies (25% change compared with baseline at active disease))
B7-H2 up or down regulated (APC): up regulated (cut off values identified in preliminary studies (25% change compared with baseline at active disease))
B7-H4 up or down regulated (APC): up regulated (cut off values identified in preliminary studies (25% change compared with baseline at active disease))
FAS-L up or down regulated (APC): up regulated (cut off values identified in preliminary studies (25% change compared with baseline at active disease))
IL-10 up or down regulated (APC): up regulated (cut off values identified in preliminary studies (25% change compared with baseline at active disease))
INFγ up or down regulated (APC): up regulated (cut off values identified in preliminary studies (25% change compared with baseline at active disease))
TGFβ up or down regulated (APC): up regulated (cut off values identified in preliminary studies (25% change compared with baseline at active disease))
percent change in expression of B7-H1 (APC): +106.4%
percent change in expression of B7-H2 (APC): +98.4%
percent change in expression of B7-H4 (APC): +118.6%
percent change in expression of FAS-L (APC): +83.1%
percent change in expression of IL-10 (APC): +28.6%
percent change in expression of INFγ (APC): +219.9%
percent change in expression of TGFβ (APC): +31.1%
IL-10 up or down regulated (Te Cells): no change (cut off values identified in preliminary studies (25% change compared with baseline at active disease))
IL-17A up or down regulated (Te Cells): no change (cut off values identified in preliminary studies (25% change compared with baseline at active disease))
TGFβ up or down regulated (Te Cells): up regulated (cut off values identified in preliminary studies (25% change compared with baseline at active disease))
percent change in expression of FAS-L (Te Cells): 20.5%
percent change in expression of GATA-3 (Te Cells): −21.6%
percent change in expression of ICOS (Te Cells): −7.2%
percent change in expression of IL-10 (Te Cells): +15.2%
percent change in expression of IL-17A (Te Cells): +0.3%
percent change in expression of INFγ (Te Cells): +1.7%
percent change in expression of PD-1 (Te Cells): +5.6%
percent change in expression of TGFβ (Te Cells): +150.8%
percent change in expression of TNFα (Te Cells): 2.3%
percent change in expression of Tbet (Te Cells): −17.1%
CTLA4 up or down regulated (nTreg): up regulated (cut off values identified in preliminary studies (25% change compared with baseline at active disease))
FoxP3 up or down regulated (nTreg): up regulated (cut off values identified in preliminary studies (25% change compared with baseline at active disease))
Granzyme B up or down regulated (nTreg): up regulated (cut off values identified in preliminary studies (25% change compared with baseline at active disease))
INFγ up or down regulated (nTreg): up regulated (cut off values identified in preliminary studies (25% change compared with baseline at active disease))
PD1 up or down regulated (nTreg): up regulated (cut off values identified in preliminary studies (25% change compared with baseline at active disease))
TGFβ up or down regulated (nTreg): up regulated (cut off values identified in preliminary studies (25% change compared with baseline at active disease))
percent change in expression of CTLA4 (nTreg): +684.0%
percent change in expression of FoxP3 (nTreg): 439.0%
percent change in expression of Granzyme B (nTreg): +393.7%
percent change in expression of INFγ (nTreg): +99.6%
percent change in expression of PD1 (nTreg): +474.2%
percent change in expression of TGFβ (nTreg): +69.3%
CTLA4 up or down regulated (PD1 + Treg): up regulated (cut off values identified in preliminary studies (25% change compared with baseline at active disease))
FoxP3 up or down regulated (PD1 + Treg): up regulated (cut off values identified in preliminary studies (25% change compared with baseline at active disease))
Granzyme B up or down regulated (PD1 + Treg): up regulated (cut off values identified in preliminary studies (25% change compared with baseline at active disease))
IL-10 up or down regulated (PD1 + Treg): up regulated (cut off values identified in preliminary studies (25% change compared with baseline at active disease))
INFγ up or down regulated (PD1 + Treg): up regulated (cut off values identified in preliminary studies (25% change compared with baseline at active disease))
PD1 up or down regulated (PD1 + Treg): up regulated (cut off values identified in preliminary studies (25% change compared with baseline at active disease))
Perforin up or down regulated (PD1 + Treg): up regulated (cut off values identified in preliminary studies (25% change compared with baseline at active disease))
TGFβ up or down regulated (PD1 + Treg): up regulated (cut off values identified in preliminary studies (25% change compared with baseline at active disease))
percent change in expression of FoxP3 (PD1 + Treg): +124.1%
percent change in expression of Granzyme B (PD1 + Treg): +213.8%
percent change in expression of IL-10 (PD1 + Treg): 168.8%
percent change in expression of INFγ (PD1 + Treg): +355.0%
percent change in expression of PD1 (PD1 + Treg): 290.3%
percent change in expression of Perforin (PD1 + Treg): +288.7%
percent change in expression of TGFβ (PD1 + Treg): +254.4%
suppressive capability of Treg to suppress effector proliferation (Treg): enhanced
